Two compounds from patent US10487093B2, “Heterocyclic compounds, in particular 2-oxo-4,4,5,5,6,6,7,7-octahydrobenzoxazole derivatives, and their use as antibacterial compounds” (priority 2016, dated 2019) can be followed below.

Structures are written as SMILES. Values after ≈ are worked out from the molar mass of the structure shown.

Assay [1] deals with Acinetobacter baumannii NCTC 13420. In words: MIC, broth microdilution (CLSI) versus planktonic bacteria. Conditions: NCTC13420; Acinetobacter baumannii NCTC 13420; 16-20 h; mode of three independent experiments; read-out: MIC, Ab NCTC 13420. It is filed as cell-based. A general note: In broth dilution the organism is exposed to a series of concentrations in liquid medium.
The subject of assay [2] is Enterobacter cloacae NCTC 13406. Described as above. It is filed as cell-based. Conditions: NCTC13406; Enterobacter cloacae NCTC 13406; 16-20 h; mode of three independent experiments; read-out: MIC, Ecl NCTC 13406.
Assay [3] has as its system Escherichia coli ATCC 25922. Described as above. It is filed as cell-based. The note with it: ATCC25922; Escherichia coli ATCC 25922; 16-20 h; mode of three independent experiments; read-out: MIC, Ec ATCC 25922.
Assay [4] deals with Staphylococcus aureus ATCC 29213. The description is as above. The assay is classed as cell-based. Conditions: ATCC29213; Staphylococcus aureus ATCC 29213; 16-20 h; mode of three independent experiments; read-out: MIC, Sa ATCC 29213.
In assay [5] the test system is Streptococcus pneumoniae ATCC 49619. The description is as above. Conditions: ATCC49619; Streptococcus pneumoniae ATCC 49619; 16-20 h; mode of three independent experiments; read-out: MIC, Sp ATCC 49619. The assay is classed as cell-based.
In assay [6] the test system is human hepatic cell line (HepG2 ATCC HB-8065). Briefly: Human cell viability assay (CellTiter-Glo). Conditions: Homo sapiens, HepG2, 24 h, read-out: IC50 (μg/mL) HepG2.
Assay [7] has as its system Acinetobacter baumannii ATCC 19606. In words: MIC, broth microdilution (CLSI) versus planktonic bacteria. It is filed as cell-based. Conditions: ATCC19606; Acinetobacter baumannii ATCC 19606; 16-20 h; mode of three independent experiments; read-out: MIC, Ab ATCC 19606.
The subject of assay [8] is E. coli ATCC BAA-2452. Described as above. The note with it: Escherichia coli ATCC BAA-2452; 16-20 h; mode of three independent experiments; read-out: MIC, Ec ATCC BAA 2452. The assay is classed as cell-based.
The subject of assay [9] is E. coli NCTC 13476. The assay is described as above. It is filed as cell-based. The note with it: NCTC13476; Escherichia coli NCTC 13476; 16-20 h; mode of three independent experiments; read-out: MIC, Ec NCTC 13476.
Assay [10] concerns E. coli MG1655. Described as above. The assay is classed as cell-based, Escherichia coli. Conditions: Escherichia coli, MG1655, read-out: MIC, Ec MG1655 WT.
For assay [11], the system named is E. coli MG1655 S83L. It is filed as cell-based, Escherichia coli. Conditions: compared to the isogenic parent strain E. coli MG1655; S83L mutation on DNA gyrase subunit GyrA.
The subject of assay [12] is E. coli MG1655 D87G. The assay is classed as cell-based, Escherichia coli. The note with it: compared to the isogenic parent strain E. coli MG1655; D87G mutation on DNA gyrase subunit GyrA.

On to `Cc1ccc2ncc(=O)n(CCN[C@H]3CC[C@H]4[C@@H](C3)OC(=O)N4c3ccc4c(n3)NC(=O)CO4)c2c1` [Compound 27, 1-(2-{[(3aS,6S,7aR)-2-oxo-3-{3-oxo-2H,3H,4H-pyrido[3,2-b][1,4]oxazin-6-yl}-octahydro-1,3-benzoxazol-6-yl]amino}ethyl)-7-methyl-1,2-dihydroquinoxalin-2-one], for which the minimal inhibitory concentration (MIC) (as a rule, the least concentration at which growth counts as inhibited) in [1] was 1 to 10 µg/mL (≈ 2.04 to 20.4 µM); in assay [2], 1 to 10 µg/mL (≈ 2.04 to 20.4 µM); in assay [3] it was less than 1 µg/mL; in [4] it was less than 1 µg/mL; in assay [5], less than 1 µg/mL. The IC50 in [6] was more than 100 µg/mL.
Take `COc1ccc2ncc(=O)n(CCN[C@@H]3CC[C@@H]4[C@@H](C3)OC(=O)N4c3ccc4c(n3)NC(=O)CO4)c2c1` [Compound 21, 1-(2-{[(3aR,6R,7aR)-2-oxo-3-{3-oxo-2H,3H,4H-pyrido[3,2-b][1,4]oxazin-6-yl}-octahydro-1,3-benzoxazol-6-yl]amino}ethyl)-7-methoxy-1,2-dihydroquinoxalin-2-one]: the MIC in assay [1], in assay [7], in assay [2], in [3], in assay [8] and in [9] was less than 1 µg/mL throughout. In addition, the MIC in [10] is less than 1 µg/mL; in [4], less than 1 µg/mL; in assay [5] it was 1 to 10 µg/mL (≈ 1.97 to 19.7 µM). The “Fold increase in MIC, E. coli MG1655 S83L” value in [11] was determined as 1 fold. Also, the “Fold increase in MIC, E. coli MG1655 D87G” value in assay [12] stood at 2 fold. The IC50 in assay [6] was more than 100 µg/mL.
